According to US12280138B2, “Dedifferentiated cell extract of Bletilla and method for whitening, anti-oxidation and anti-wrinkling applying the same, and cosmetic comprising the same” (CHLITINA INTELLIGENCE LIMITED, priority 2021, dated 2025):

Assays:
melanosis = conditions: 1% kojic acid applied to male and female subjects; cited from earlier work
zebrafish embryos = experiment: Whitening efficacy in zebrafish experiment (melanin plaques); type: in vivo; conditions: 10 mM (about 1421 μg/ml)
Protocol: The wild-type zebrafish were stimulated to spawn, and the eggs spawned within one hour were collected. Upon 9 hours after fertilization, the embryos were screened by microscope to confirm the developmental state after fertilization. Each group had 12 fish embryos. The E3 culture medium, which was the zebrafish embryo culture medium, served as the control group. The positive control group was added with kojic acid (Kojic acid). Each experimental group was added with Example 1, Comparative example 1 and Comparative example 2, respectively. As zebrafish embryos produced melanin within 24 hours after fertilization, the treatment finished before the production of melanin, and the melanin production state in the hatched fish was observed upon 72 hours after fertilization. First, the fish was anesthetized and placed on a flat surface. The photo was taken from a top view, and the melanin plaques were analyze by the software of ImageJ. The intensity of the melanin plaque in the control group served as the standard, that is, the melanin amount thereof was 100%. The relative melanin amounts of the rest of the groups were calculated.

SMILES: O=c1cc(CO)occ1O [kojic acid]
- melanosis (melanosis): significantly inhibited
- Inhibition rate of melanin production (zebrafish embryos): about 55%
